Measured values reported in US20240181022A1, “AMURINS LYSINS, AND LYSIN-ANTIMICROBIAL PEPTIDE (AMP) CONSTRUCTS ACTIVE AGAINST GRAM-NEGATIVE BACTERIA” (priority 2021, published 2024).
Values after ≈ are worked out from the molar mass of the structure shown. Read-outs that look alike come from different tables or passages of the source. Where a SMILES comes first, the peptide text is derived from it. Where no end group is shown, it is not given here. [ ]: non-standard residue; d: D form.

Key:
M. fortuitum = test: MIC against M. fortuitum; assay type: cell-based, Mycobacterium fortuitum; conditions: M. fortuitum (ATCC 6841); CAAT media
M. smegmatis = test: MIC against M. smegmatis; assay type: cell-based, Mycobacterium smegmatis; conditions: M. smegmatis (MC 155); CAAT media
M. kansasii = test: MIC against M. kansasii; assay type: cell-based, Mycobacterium kansasii; conditions: M. kansasi (ATCC 12478); CAAT media
M. intracellulare = test: MIC against M. intracellulare; assay type: cell-based, Mycobacterium intracellulare; conditions: M. intracellulare (ATCC 13950); CAAT media
M. abscessus = test: MIC against MDR M. abscessus isolates; assay type: cell-based, Mycobacterium abscessus; conditions: 7 days; for MIC: AST media (CAAT); for activity (MIC) against M. abscessus: 5 clinical MDR strains and 1 ATCC strain, CAAT
M. scrofulaceum = test: MIC against M. scrofulaceum; assay type: cell-based, Mycobacterium scrofulaceum; conditions: M. scrofulaceum (ATCC 19981); CAAT media
M. tuberculosis = assay type: cell-based, Mycobacterium tuberculosis
Mycobacterium species = assay type: cell-based
M. avium = test: MIC against M. avium; assay type: cell-based, Mycobacterium avium; conditions: M. avium (ATCC 700898); CAAT media
E. cloacae = test: Checkerboard synergy assay (FICI) against E. cloacae; assay type: cell-based, Enterobacter cloacae; conditions: E. cloacae ATCC 13047
Procedure: (§1) Any known method to assess MIC may be used.
(§2) Checkerboards are constructed by first preparing columns of e.g., a 96-well polypropylene microtiter plate, wherein each well has the same amount of antibiotic diluted 2-fold along the horizontal axis. […] Bacteria are added to the drug combinations at concentrations of 1×10^5 […] in CAA, for example, with or without human serum or pulmonary surfactant. […] Summation fractional inhibitory concentrations (ΣFICs) are calculated for each drug and the minimum ΣFIC value (ΣFICmin) is used to determine the effect of the Chp peptide/antibiotic combination.
(§3) GN370 was further tested in combination with up to seven additional antibiotics (in addition to meropenem) against a variety of bacterial strains, including P. aeruginosa, A. baumannii, E. coli, E. cloacae, and K. pneumoniae. GN370 and the subject antibiotics were tested in a checkerboard assay format, and FICI values were determined, wherein ≤0.5 indicates synergy, >0.5-≤1 indicates additive; and >1 indicates indifferent.

A. baumannii = test: Checkerboard synergy assay (FICI) against A. baumannii; assay type: cell-based, Acinetobacter baumannii; conditions: A. baumannii ATCC BAA-747
Procedure: as §1, §2, §3

K. pneumoniae = test: Checkerboard synergy assay (FICI) against K. pneumoniae; assay type: cell-based, Klebsiella pneumoniae; conditions: K. pneumoniae HM-44
Procedure: as §1, §2, §3

P. aeruginosa = test: Checkerboard synergy assay (FICI) with antibiotics against P. aeruginosa; assay type: cell-based, Pseudomonas aeruginosa; conditions: for FICI of the antibiotic with GN370: P. aeruginosa ATCC 27853, checkerboard
Procedure: as §1, §2
The synergy of GN370 with meropenem was evaluated against 3 different strains of P. aeruginosa and three different strains of B. cenocepacia.
as §3

E. coli = test: Checkerboard synergy assay (FICI) against E. coli; assay type: cell-based, Escherichia coli; conditions: E. coli ATCC 25922
From the text: In some embodiments, the Chp peptides disclosed herein or active fragments thereof reduce the minimum inhibitory concentration (MIC) of an antibiotic in the presence and/or absence of human serum, pulmonary surfactant, and/or sputum, including human sputum and human sputum from a cystic fibrosis patient. Any known method to assess MIC may be used. In some embodiments, a checkerboard assay is used to determine the effect of a Chp peptide or active fragment thereof on antibiotic concentration. The checkerboard assay is based on a modification of the CLSI method for MIC determination by broth microdilution (See Clinical and Laboratory Standards Institute (CLSI), CLSI. 2015. Methods for Dilution Antimicrobial Susceptibility Tests for Bacteria That Grow Aerobically; Approved Standard-10th Edition. Clinical and Laboratory Standards Institute, Wayne, PA, which is herein incorporated by reference in its entirety and Ceri et al. 1999. J. Clin. Microbiol. 37: 1771-1776, which is also herein incorporated by reference in its entirety).
Checkerboards are constructed by first preparing columns of e.g., a 96-well polypropylene microtiter plate, wherein each well has the same amount of antibiotic diluted 2-fold along the horizontal axis. […] The Chp peptide or active fragment thereof and antibiotic dilutions are then combined, so that each column has a constant amount of antibiotic and doubling dilutions of Chp peptide, while each row has a constant amount of Chp peptide and doubling dilutions of antibiotic. Each well thus has a unique combination of Chp peptide and antibiotic. Bacteria are added to the drug combinations at concentrations of 1×10^5 GFU/ml in CAA, for example, with or without human serum or pulmonary surfactant. […] Summation fractional inhibitory concentrations (ΣFICs) are calculated for each drug and the minimum ΣFIC value (ΣFICmin) is used to determine the effect of the Chp peptide/antibiotic combination.
as §3

[1] = M. abscessus strain BK51403 (ATCC 19977)
[2] = M. tuberculosis (ATCC 35817), (ADC, T) media
[3] = M. tuberculosis strain TN8109_LB (MDR), 7H9 broth, 20 days
[4] = M. tuberculosis strain TN8562_M33 (susc), 7H9 broth, 20 days
[5] = M. tuberculosis strain TN10525_LL (MDR), 7H9 broth, 20 days
[6] = M. tuberculosis strain TN10571_KY (MDR), 7H9 broth, 20 days
[7] = M. tuberculosis strain TN12657_KQ15 (IS), 7H9 broth, 20 days
[8] = M. tuberculosis strain TN13923_HD17 (susc), 7H9 broth, 20 days
[9] = M. tuberculosis strain TN18349_W738 (susc), 7H9 broth, 20 days
[10] = M. tuberculosis strain TN34503_001 (susc), 7H9 broth, 20 days
[11] = 30 amurin peptides, seven species, CAAT media

| Compound | MIC (M. fortuitum) [µg/mL] | MIC (M. smegmatis) [µg/mL] | MIC (M. kansasii) [µg/mL] | MIC (M. intracellulare) [µg/mL] | MIC (M. abscessus; M. abscessus strain BK51402) [µg/mL] | MIC (M. abscessus; [1]) [µg/mL] | MIC (M. abscessus; M. abscessus strain BK51408) [µg/mL] | MIC (M. abscessus; M. abscessus strain BK55096) [µg/mL] | MIC (M. abscessus; M. abscessus strain BK55691) [µg/mL] | MIC (M. abscessus; M. abscessus strain BK58156) [µg/mL] | MIC (M. scrofulaceum) [µg/mL] | MIC (M. tuberculosis; [2]) [µg/mL] | MIC (M. tuberculosis; [3]) [µg/mL] | MIC (M. tuberculosis; [4]) [µg/mL] | MIC (M. tuberculosis; [5]) [µg/mL] | MIC (M. tuberculosis; [6]) [µg/mL] | MIC (M. tuberculosis; [7]) [µg/mL] | MIC (M. avium) [Tg/mL] | FICI of the antibiotic with GN370 (A. baumannii) | FICI of the antibiotic with GN370 (K. pneumoniae) | other results |
| --- | --- | --- | --- | --- | --- | --- | --- | --- | --- | --- | --- | --- | --- | --- | --- | --- | --- | --- | --- | --- | --- |
| CC[C@H](C)[C@H](NC(=O)CNC(=O)CNC(=O)[C@H](CCCNC(=N)N)NC(=O)[C@H](CCSC)NC(=O)[C@@H](NC(=O)[C@H](CCCNC(=N)N)NC(=O)[C@H](CCCNC(=N)N)NC(=O)[C@H](CC(C)C)NC(=O)[C@H](CCCNC(=N)N)NC(=O)[C@H](CC(N)=O)NC(=O)[C@H](CCCNC(=N)N)NC(=O)[C@@H]1CCCN1C(=O)[C@H](Cc1c[nH]cn1)NC(=O)[C@H](CCSC)NC(=O)[C@H](CCCNC(=N)N)NC(=O)[C@H](CC(C)C)NC(=O)[C@H](C)NC(=O)[C@@H](NC(=O)[C@H](CCCNC(=N)N)NC(=O)[C@H](CO)NC(=O)[C@H](Cc1ccccc1)NC(=O)[C@H](CC(C)C)NC(=O)[C@H](CCCNC(=N)N)NC(=O)[C@H](CCCNC(=N)N)NC(=O)[C@H](CO)NC(=O)[C@H](CCCNC(=N)N)NC(=O)[C@H](CCCNC(=N)N)NC(=O)[C@H](CCCNC(=N)N)NC(=O)[C@@H]1CCCN1C(=O)[C@H](CC(C)C)NC(=O)[C@H](CCCNC(=N)N)NC(=O)[C@H](Cc1ccc(O)cc1)NC(=O)[C@H](CCCNC(=N)N)NC(=O)[C@H](CCCNC(=N)N)NC(=O)[C@H](CCCNC(=N)N)NC(=O)[C@H](C)NC(=O)[C@@H](N)CCSC)[C@@H](C)O)[C@@H](C)CC)C(=O)N[C@@H](CCCNC(=N)N)C(=O)N[C@@H](Cc1ccccc1)C(=O)O [AM18] (H-MARRRYRLPRRRSRRLFSRTALRMHPRNRLRRIMRGGIRF-OH) | 2 (≈ 0.386 µM) | 0.25 (≈ 0.0483 µM) | 4 (≈ 0.772 µM) | 1 (≈ 0.193 µM) | 2 (≈ 0.386 µM) | 1 (≈ 0.193 µM) | 4 (≈ 0.772 µM) | 4 (≈ 0.772 µM) | 2 (≈ 0.386 µM) | 16 (≈ 3.09 µM) | 4 (≈ 0.772 µM) | 4 (≈ 0.772 µM) | 1 (≈ 0.193 µM) | 2 (≈ 0.386 µM) | 1 (≈ 0.193 µM) | 2 (≈ 0.386 µM) | 1 (≈ 0.193 µM) | 2 | – | – | MIC (M. tuberculosis; [8]): 1 µg/mL (≈ 0.193 µM); MIC (M. tuberculosis; [9]): 2 µg/mL (≈ 0.386 µM); MIC (M. tuberculosis; [10]): 0.5 µg/mL (≈ 0.0965 µM); activity (MIC) against Mycobacterium species (Mycobacterium species): highest activity |
| C[C@H]1[C@H](NC(=O)/C(=N\OC(C)(C)C(=O)O)c2csc(N)n2)C(=O)N1S(=O)(=O)O [Aztreonam] | – | – | – | – | – | – | – | – | – | – | – | – | – | – | – | – | – | – | 0.313 | 0.375 | FICI of the antibiotic with GN370 (E. cloacae): 0.25; FICI of the antibiotic with GN370 (P. aeruginosa): 0.375 |
| Cc1nnc(SCC2=C(C(=O)O)N3C(=O)[C@@H](NC(=O)Cn4cnnn4)[C@H]3SC2)s1 [Cefazolin] | – | – | – | – | – | – | – | – | – | – | – | – | – | – | – | – | – | – | 0.5 | 0.375 | – |
| AM9: Modified variant of Unp2, SEQ ID NO: 97 (M[dR][dR][dR][dR]LS[dR][dR]TS[dR][dR]FF[dR][dK]GL[dK]V[dR][dR][dR]NL[dR]A[dR]PM[dR]GGF[dR]I) | 4 | 1 | 2 | 2 | 1 | 4 | 4 | 2 | 2 | 2 | 4 | 4 | 16 | 16 | 64 | 8 | 16 | 1 | – | – | activity (MIC) against M. abscessus (M. abscessus): good activity; MIC (M. tuberculosis; [8]): 16 µg/mL; MIC (M. tuberculosis; [9]): 8 µg/mL; MIC (M. tuberculosis; [10]): 16 µg/mL; activity (MIC) against Mycobacterium species (Mycobacterium species; [11]): highest activity |
| AM16: Modified variant of Chp4, SEQ ID NO: 91 (MA[dR][dR]Y[dR]LS[dR][dR][dR]S[dR][dR]LFS[dR]TAL[dR]MH[dR][dR]N[dR]L[dR][dR]IM[dR]GGI[dR]F) | 2 | 0.25 | 1 | 1 | 1 | 2 | 4 | 1 | 1 | 2 | 1 | 8 | 8 | 8 | 16 | 8 | 8 | 1 | – | – | activity (MIC) against M. abscessus (M. abscessus): good activity; MIC (M. tuberculosis; [8]): 8 µg/mL; MIC (M. tuberculosis; [9]): 4 µg/mL; MIC (M. tuberculosis; [10]): 16 µg/mL; activity (MIC) against Mycobacterium species (Mycobacterium species; [11]): highest activity |
| Colistin | – | – | – | – | – | – | – | – | – | – | – | – | – | – | – | – | – | – | 0.375 | 0.187 | FICI of the antibiotic with GN370 (E. cloacae): 0.25; FICI of the antibiotic with GN370 (E. coli): 0.375; FICI of the antibiotic with GN370 (P. aeruginosa): 0.499; Antibiotic MIC (single agent) (P. aeruginosa; P. aeruginosa strain AR-769): 0.063 µg/mL; Antibiotic FIC (P. aeruginosa; P. aeruginosa strain AR-769, in combination with GN370): 0.125; Antibiotic MIC (combo) (P. aeruginosa; P. aeruginosa strain AR-769, in combination with GN370, in µg/mL): 0.008 |
| Gentamicin | – | – | – | – | – | – | – | – | – | – | – | – | – | – | – | – | – | – | 0.563 | 0.375 | FICI of the antibiotic with GN370 (E. cloacae): 0.25; FICI of the antibiotic with GN370 (E. coli): 0.312 |
| Unp2: SEQ ID NO: 20, unnamed protein product (MRRRRLSRRTSRRFFRKGLKVRRRNLRARPMRGGFRI) | 2 | 4 | 2 | 1 | – | – | – | – | – | – | 4 | 8 | – | – | – | – | – | 0.5 | – | – | – |
| Unp3-M1: Modified variant of Unp3, SEQ ID NO: 98 (MA[dR][dR][dK][dK]M[dK]G[dK][dR]D[dK][dR]VF[dK]QTAN[dK]T[dK]AINISP[dK]NM[dR]GGT[dR]L) | 4 | 8 | 16 | >64 | – | – | – | – | – | – | 8 | 4 | – | – | – | – | – | 8 | – | – | – |
| Unp4: SEQ ID NO: 94, Marine gokushovirus (MIVRRHKMSRRRSRKLFSKTASRTRSKNLRSRPMRGGYRI; listed as Marine gokushovirus) | 4 | 16 | 4 | 4 | – | – | – | – | – | – | 4 | 16 | – | – | – | – | – | 1 | – | – | – |
